The results in this text go back to EP4635949A1 (Jiangsu NHWA Pharmaceutical Co., Ltd, priority 2022, dated 2024).

One series addresses T1, OX1 receptor (Homo sapiens, UniProt O43613).
T1 construct: host or cells: CHO-K1
T1 sequence (O43613 1-425): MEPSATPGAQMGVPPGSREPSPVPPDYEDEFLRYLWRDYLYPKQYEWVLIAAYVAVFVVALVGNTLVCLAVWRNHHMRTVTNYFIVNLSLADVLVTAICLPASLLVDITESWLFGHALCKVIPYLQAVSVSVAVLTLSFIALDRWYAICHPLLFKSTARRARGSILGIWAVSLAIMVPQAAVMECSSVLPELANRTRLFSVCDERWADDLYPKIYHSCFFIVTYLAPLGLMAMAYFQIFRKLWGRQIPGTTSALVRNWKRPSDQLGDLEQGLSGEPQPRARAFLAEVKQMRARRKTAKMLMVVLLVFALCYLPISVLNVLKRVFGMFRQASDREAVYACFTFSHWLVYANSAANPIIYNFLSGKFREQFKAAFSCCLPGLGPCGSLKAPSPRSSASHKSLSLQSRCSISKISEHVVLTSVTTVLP
Put plainly: Orexin target function test (Cisbio HTRF IP-one), CHO-K1-OX1 cells, antagonism of EC80 Orexin A. Type of series: cell-based. As to the method:
(§1) Using Cisbio HTRF IP-one kit to detect the changes in IP-one concentration of orexin receptor (OX1/OX2) signaling pathway by microplate reader, and calculating the IC50 value of the compound to evaluate the antagonistic effect of the compound on OX1 and OX2 receptors.
(§2) The cells were centrifuged at 1000 rpm for 5 minutes and the supernatant was discarded. 3 mL of PBS was added, and gently blown with a pipette to mix. After centrifugation at 1000 rpm for 5 minutes again, the supernatant was discarded. […] Based on the antagonistic effect values of the compound samples at different concentrations, the GraphPad Prism software was used to fit the orexin receptor antagonism curve of the compound samples and calculate the IC50.

The target in a further series is T2, OX2 receptor (Homo sapiens, UniProt O43614).
T2 construct: host or cells: CHO-K1
T2 sequence (O43614 1-444): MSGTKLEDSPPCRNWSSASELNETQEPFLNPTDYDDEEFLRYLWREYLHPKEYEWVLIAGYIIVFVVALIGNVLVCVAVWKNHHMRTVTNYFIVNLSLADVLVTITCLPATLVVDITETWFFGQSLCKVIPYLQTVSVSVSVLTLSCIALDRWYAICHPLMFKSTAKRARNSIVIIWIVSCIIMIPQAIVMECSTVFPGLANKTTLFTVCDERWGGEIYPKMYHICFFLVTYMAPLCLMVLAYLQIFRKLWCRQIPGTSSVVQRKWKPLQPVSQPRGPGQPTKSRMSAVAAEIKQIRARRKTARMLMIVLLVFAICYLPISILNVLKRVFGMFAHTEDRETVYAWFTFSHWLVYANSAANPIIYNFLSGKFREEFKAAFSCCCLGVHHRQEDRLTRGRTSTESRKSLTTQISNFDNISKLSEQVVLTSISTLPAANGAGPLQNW
Put plainly: Orexin target function test (Cisbio HTRF IP-one), CHO-K1-OX2 cells, antagonism of EC80 Orexin 2 receptor agonist. Type of series: cell-based. The method, then: as §1, §2
For orientation: TR-FRET usually uses a lanthanide donor and a delayed reading to cut background.

A further series in a line: in vivo. To be noted: male, SD, rat, plasma.
Where [1] appears, read: CHO-K1-OX1 cells, IP-one, read-out: hOXIR IC50.
Where [2] appears, read: CHO-K1-OX2 cells, IP-one, read-out: hOX2R IC50.
Where [3] appears, read: ratio of OX1R IC50 to OX2R IC50.

Where two headings read alike, the source gives them in different places.

As a reminder, the IC50 is the concentration at which inhibition is half-maximal. Take `COc1nc(C2=CC3CN(C(=O)c4ccccc4-n4nccn4)CC3C2)nc(C)c1F` (centres unmarked) [Compound 27, (2-(2H-1,2,3-triazol-2-yl)phenyl)(5-(5-fluoro-4-methoxy-6-methylpyrimidin-2-yl)-3,3a,4,6a-tetrahydrocyclopenta[c]pyrrol-2(1H)-yl)methanone]: the IC50 worked out at 1680 nM at OX1 receptor (setting [1]) and 20 nM at OX2 receptor (setting [2]). Besides, the Selectivity on OX2 receptor (setting [3]) was determined as 84.

In general, AUC(0-t) refers to exposure summed from dosing to a finite time, without extrapolation to infinity. For orientation: Cmax means the peak of the concentration-time curve. One may read the bioavailability as dose-corrected exposure relative to a reference, in per cent. A high value points to much systemic uptake. For `Cc1nc(C2=CC3CN(C(=O)c4c(F)cccc4-n4nccn4)CC3C2)nc(C(C)(C)O)c1F` (centres unmarked) [Compound 37, (5-(5-fluoro-4-(2-hydroxypropan-2-yl)-6-methylpyrimidin-2-yl)-3,3a,4,6a-tetrahydrocyclopenta[c]pyrrol-2(1H)-yl)(2-fluoro-6-(2H-1,2,3-triazol-2-yl)phenyl)methanone], in “in vivo” (iv, 1 mg/kg), the AUC(0-t) is 626 ng·h/mL and the peak level (Cmax) was 980 ng/mL. Further, in the series “in vivo” (po, 30 mg/kg), the exposure AUC(0-t) is 16800 ng·h/mL, the Cmax was determined as 9240 ng/mL and the bioavailability turned out to be 89.3%.

Regarding `Cc1nc(C2=CC3CN(C(=O)c4c(F)cccc4-n4nccn4)CC3C2)nc2c1OCC2` (centres unmarked) [Compound 19, (2-fluoro-6-(2H-1,2,3-triazol-2-yl)phenyl)(5-(4-methyl-6,7-dihydrofuro[3,2-d]pyrimidin-2-yl)-3,3a,4,6a-tetrahydrocyclopenta[c]pyrrol-2(1H)-yl)methanone], the values for the IC50 on OX1 receptor (setting [1]) and on OX2 receptor (setting [2]) were 2480 nM and 18 nM, respectively. For the same compound, the Selectivity at OX2 receptor (setting [3]) turned out to be 138.

In the case of `COc1ccc(C(=O)N2CC3C=C(c4nc(CF)cnc4OC)CC3C2)c(-n2nccn2)c1` (centres unmarked) [Compound 59, [5-[6-(fluoromethyl)-3-methoxypyrazin-2-yl]-3,3a,4,6a-tetrahydrocyclopentyl[c]pyrrol-2(1H)-yl][4-methoxy-2-(2H-1,2,3-triazol-2-yl)phenyl]methanone], the concentration for half-maximal inhibition (IC50) on OX1 receptor (setting [1]) was determined as 1800 nM; on OX2 receptor (setting [2]), 17 nM. Also, the Selectivity on OX2 receptor (setting [3]) is on record as 106.

As to `[2H]C([2H])([2H])c1nc(C2=CC3CN(C(=O)c4ccc(F)cc4-n4nccn4)CC3C2)nc(C([2H])([2H])[2H])c1F` (centres unmarked) [Compound 30, (4-fluoro-2-(2H-1,2,3-triazol-2-yl)phenyl)(5-(5-fluoro-4,6-bis(methyl-d3)pyrimidin-2-yl)-3,3a,4,6a-tetrahydrocyclopenta[c]pyrrol-2(1H)-yl)methanone], the half-maximal inhibitory concentration (IC50) against OX1 receptor was 3920 nM; at OX2 receptor it was 21 nM. In addition, the Selectivity at OX2 receptor (setting [3]) is recorded as 186.

With `CCc1c(C)nc(C2=CC3CN(C(=O)c4c(F)cccc4-n4nccn4)CC3C2)nc1C` (centres unmarked) [Compound 11, (5-(5-ethyl-4,6-dimethylpyrimidin-2-yl)-3,3a,4,6a-tetrahydrocyclopenta[c]pyrrol-2(1H)-yl)(2-fluoro-6-(2H-1,2,3-triazol-2-yl)phenyl)methanone], the IC50 at OX1 receptor (setting [1]) was 1950 nM; at OX2 receptor (setting [2]), 27 nM. Besides, on OX2 receptor (setting [3]), the Selectivity came out at 72.

In the case of `COc1cnc(OC)c(C2=CC3CN(C(=O)c4ccc(F)cc4-n4nccn4)CC3C2)n1` (centres unmarked) [Compound 50, [5-(3,6-dimethoxypyrazin-2-yl)-3,3a,4,6a-tetrahydrocyclopenta[c]pyrrol-2(1H)-yl][4-fluoro-2-(2H-1,2,3-triazol-2-yl)phenyl]methanone], the half-maximal inhibitory concentration (IC50) on OX1 receptor is 3610 nM; at OX2 receptor it was 27 nM. The Selectivity on OX2 receptor (setting [3]) is listed as 134.

On to `[2H]C([2H])([2H])c1cnc(OC)c(C2=CC3CN(C(=O)c4ccc(OC)cc4-n4nccn4)CC3C2)n1` (centres unmarked) [Compound 56, [4-methoxy-2-(2H-1,2,3-triazol-2-yl)phenyl][5-[3-methoxy-6-(methyl-d3)pyrazin-2-yl]-3,3a,4,6a-tetrahydrocyclopentyl[c]pyrrol-2(1H)-yl]methanone], for which the half-maximal inhibitory concentration (IC50) stood at 2300 nM on OX1 receptor (setting [1]) and 16 nM on OX2 receptor (setting [2]). Besides, the Selectivity on OX2 receptor (setting [3]) worked out at 144.

Take `Cc1nc(C2=CC3CN(C(=O)c4c(F)cccc4-n4nccn4)CC3C2)nc2c1COCC2` (centres unmarked) [Compound 16, (2-fluoro-6-(2H-1,2,3-triazol-2-yl)phenyl)(5-(4-methyl-7,8-dihydro-5H-pyrano[4,3-d]pyrimidin-2-yl)-3,3a,4,6a-tetrahydrocyclopenta[c]pyrrol-2(1H)-yl)methanone]: the IC50 at OX1 receptor (setting [1]) was 1880 nM; on OX2 receptor (setting [2]), 20 nM. Moreover, the Selectivity on OX2 receptor (setting [3]) is listed as 94.

For `[2H]C([2H])([2H])Oc1ccc(C(=O)N2CC3C=C(c4nc(C)cnc4OC)CC3C2)c(-n2nccn2)c1` (centres unmarked) [Compound 57, [5-(3-methoxy-6-methylpyrazin-2-yl)-3,3a,4,6a-tetrahydrocyclopenta[c]pyrrol-2(1H)-yl][4-(methoxy-d3)-2-(2H-1,2,3-triazol-2-yl)phenyl]methanone], the results for the IC50 at OX1 receptor (setting [1]) and on OX2 receptor (setting [2]) were 3160 nM and 18 nM, respectively. Further, the Selectivity at OX2 receptor (setting [3]) came to 176.

With `[2H]C([2H])([2H])Oc1cc(-n2nccn2)c(C(=O)N2CC3C=C(c4nc(C)c(F)c(C)n4)CC3C2)cn1` (centres unmarked) [Compound 34, (5-(5-fluoro-4,6-dimethylpyrimidin-2-yl)-3,3a,4,6a-tetrahydrocyclopenta[c]pyrrol-2(1H)-yl)(6-(methoxy-d3)-4-(2H-1,2,3-triazol-2-yl)pyridin-3-yl)methanone], the concentration for half-maximal inhibition (IC50) on OX1 receptor was 5000 nM. At OX2 receptor, this compound gave a half-inhibitory concentration (IC50) of 24 nM and a Selectivity of 208.

As to `Cc1nc(C2=CC3CN(C(=O)c4c(F)cccc4-c4cc[nH]n4)CC3C2)nc(C)c1F` (centres unmarked) [Compound 29, (5-(5-fluoro-4,6-dimethylpyrimidin-2-yl)-3,3a,4,6a-tetrahydrocyclopenta[c]pyrrol-2(1H)-yl)(2-fluoro-6-(1H-pyrazol-3-yl)phenyl)methanone], the IC50 at OX1 receptor (setting [1]) stood at 1280 nM; at OX2 receptor (setting [2]), 20 nM. Besides, the Selectivity at OX2 receptor (setting [3]) was determined as 64.

For `Cc1nc(C2=CC3CN(C(=O)c4c(F)cccc4-n4nccn4)CC3C2)nc2ccoc12` (centres unmarked) [Compound 18, (2-fluoro-6-(2H-1,2,3-triazol-2-yl)phenyl)(5-(4-methylfuro[3,2-d]pyrimidin-2-yl)-3,3a,4,6a-tetrahydrocyclopenta[c]pyrrol-2(1H)-yl)methanone], the IC50 is 2310 nM against OX1 receptor and 23.4 nM at OX2 receptor. In addition, the Selectivity at OX2 receptor (setting [3]) is reported as 99.

Regarding `COc1ncc(C2CC2)nc1C1=CC2CN(C(=O)c3ccc(F)cc3-n3nccn3)CC2C1` (centres unmarked) [Compound 55, [5-(6-cyclopropyl-3-methoxypyrazin-2-yl)-3,3a,4,6a-tetrahydrocyclopenta[c]pyrrol-2(1H)-yl][4-fluoro-2-(2H-1,2,3-triazol-2-yl)phenyl]methanone], the IC50 at OX1 receptor was 1900 nM; on OX2 receptor, 28 nM. For the same compound, on OX2 receptor (setting [3]), the Selectivity was 67.

Turning to `Cc1nc(C2=CC3CN(C(=O)c4c(F)cccc4-n4nccn4)CC3C2)nc2c1CCCC2` (centres unmarked) [Compound 14, (2-fluoro-6-(2H-1,2,3-triazol-2-yl)phenyl)(5-(4-methyl-5,6,7,8-tetrahydroquinazolin-2-yl)-3,3a, 4,6a-tetrahydrocyclopenta[c]pyrrol-2(1H)-yl)methanone], the IC50 on OX1 receptor (setting [1]) was 2750 nM; at OX2 receptor (setting [2]), 24 nM. Further, at OX2 receptor (setting [3]), the Selectivity amounted to 114.

Regarding `COc1ncc(C)nc1C1=CC2CN(C(=O)c3c(F)cccc3-c3ncccn3)CC2C1` (centres unmarked) [Compound 43, (2-fluoro-6-(pyrimidin-2-yl)phenyl)(5-(3-methoxy-6-methylpyrazin-2-yl)-3,3a,4,6a-tetrahydrocyclopenta[c]pyrrol-2(1H)-yl)methanone], the concentration for half-maximal inhibition (IC50) was determined as 2100 nM at OX1 receptor (setting [1]) and 28 nM on OX2 receptor (setting [2]). Further, the Selectivity at OX2 receptor (setting [3]) is 75.

In the case of `Cc1nc(C2=CC3CN(C(=O)c4c(F)cccc4-n4nccn4)CC3C2)nc2c1CCC2` (centres unmarked) [Compound 17, (2-fluoro-6-(2H-1,2,3-triazol-2-yl)phenyl)(5-(4-methyl-6,7-dihydro-5H-cyclopenta[d]pyrimidin-2-yl)-3,3a,4,6a-tetrahydrocyclopenta[c]pyrrol-2(1H)-yl)methanone], the figures for the half-maximal inhibitory concentration (IC50) on OX1 receptor and at OX2 receptor were 2880 nM and 22 nM, respectively. In addition, the Selectivity at OX2 receptor (setting [3]) turned out to be 131.

On to `Cc1cnc(C#N)c(C2=CC3CN(C(=O)c4ccc(F)cc4-n4nccn4)CC3C2)n1` (centres unmarked) [Compound 62, 3-[2-[4-fluoro-2-(2H-1,2,3-triazol-2-yl)benzoyl]-1,2,3,3a,4,6a-hexahydrocyclopenta[c]pyrrol-5-yl]-5-methylpyrazine-2-carbonitrile], for which the half-maximal inhibitory concentration (IC50) stood at 1650 nM on OX1 receptor (setting [1]) and 18 nM at OX2 receptor (setting [2]). The Selectivity on OX2 receptor (setting [3]) was 92.
